Source: patent publication US20120064176A1, “COMPOSITION FOR PREVENTING AND TREATING FATTY LIVER” (National Chung Hsing University, priority 2008, published 2012)

Tested on: C57BL/6JNarl mice
Assay: Hepatic triglycerides after 7 weeks of lactoferrin, chromium or lactoferrin+chromium in high-fat-diet mice
Format: in vivo
Settings: 10 mice in each group
Procedure: Male C57BL/6JNarl mice (n=70) fed with high fat diet (high-fat Rodent TestDiet, PMI International Inc., MO, USA; 67% of calories provided by fat), age 8 weeks, are randomly divided into the control group, the low-dose lactoferrin group (NZMP lactoferrin, New Zealand, 40 mg/kg BW/day), the high-dose lactoferrin group (80 mg/kg BW/day), the low-dose chromium group (CrCl3·6H2O, Sigma, Cr^+3 40 μg/kg BW/day), the high dose chromium group (Cr^+3 80 μg/kg BW/day), the low-dose lactoferrin+chromium group (lactoferrin 40 mg/kg BW/day+Cr^+3 40 μg/kg BW/day), and the high-dose lactoferrin+chromium group (lactoferrin 80 mg/kg BW/day+Cr^+3 80 μg/kg BW/day) (10 mice in each group). After supplementation for 7 weeks, the C57BL/6JNarl mice are sacrificed and their livers are harvested. Then, the level of hepatic triglycerides is analyzed. […] However, no significant difference between the other groups is found.

With `O.O.O.O.O.O.[Cl][Cr]([Cl])[Cl]` [chromium, CrCl3·6H2O] the “Hepatic triglycerides, High-dose” value (High-dose: lactoferrin 80 mg/kg BW/day and/or Cr+3 80 μg/kg BW/day) was 19.0 ± 5.7 μ mol/g liver and the “Hepatic triglycerides, Low-dose” value (Low-dose: lactoferrin 40 mg/kg BW/day and/or Cr+3 40 μg/kg BW/day) was 18.4 ± 8.1 μ mol/g liver.
